Results published in US7964560B2, “Hepatitis C virus inhibitors” (Bristol-Myers Squibb Company, priority 2008, dated 2011).

What was measured:
[1] = biological target: T1, porcine pancreatic elastase (PPE) (Sus scrofa, UniProt P00772); experiment: Specificity assay, porcine pancreatic elastase; type: biochemical
T1 construct: purchased Sigma, EMDbiosciences
Method: (§1) The specificities of compounds of the present disclosure were determined against a variety of serine proteases: human neutrophil elastase (HNE), porcine pancreatic elastase (PPE) and human pancreatic chymotrypsin and one cysteine protease: human liver cathepsin B. In all cases a 96-well plate format protocol using a fluorometric Amino-Methyl-Coumarin (AMC) substrate specific for each enzyme was used as described previously (PCT Patent Application No. WO 00/09543) with some modifications to the serine protease assays. All enzymes were purchased from Sigma, EMDbiosciences while the substrates were from Bachem, Sigma and EMDbiosciences.
(§2) Compound concentrations varied from 100 to 0.4 μM depending on their potency. The enzyme assays were each initiated by addition of substrate to enzyme-inhibitor pre-incubated for 10 min at room temperature and hydrolysis to 15% conversion as measured on CYTOFLUOR®.
(§3) 50 mM Tris-HCl, pH 8.0, 50 mM NaCl, 0.1 mM […], 3% DMSO, 0.02% Tween-20, 5 μM succ-AAPV-AMC and 20 nM HNE or 8 nM PPE;
(§4) The percentage of inhibition was calculated using the formula: [1−((UVinh−UVblank)/(UVctl−UVblank))]×100
(§5) A non-linear curve fit was applied to the inhibition-concentration data, and the 50% effective concentration (IC50) was calculated by the use of Excel XLfit software.

[2] = biological target: T2, human neutrophil elastase (HNE) (Homo sapiens, UniProt P08246); experiment: Specificity assay, human neutrophil elastase; type: biochemical; conditions: read-out: HLE (specificity assay IC50)
T2 construct: purchased Sigma, EMDbiosciences
T2 sequence (P08246 30-267): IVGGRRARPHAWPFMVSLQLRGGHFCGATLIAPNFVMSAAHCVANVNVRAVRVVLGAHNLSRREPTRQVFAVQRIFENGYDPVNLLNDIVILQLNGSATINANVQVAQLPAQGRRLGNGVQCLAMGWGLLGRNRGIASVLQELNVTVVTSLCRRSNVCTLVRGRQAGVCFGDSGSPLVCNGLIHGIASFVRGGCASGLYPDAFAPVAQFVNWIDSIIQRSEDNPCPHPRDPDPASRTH
Method: as §1, §2, §3, §4, §5

[3] = biological target: T3, HCV NS3/4A protease complex, J4L6S strain (Hepatitis C virus genotype 1b, UniProt O92972, C1454S/C1711G); experiment: FRET peptide assay to monitor HCV NS3/4A proteolytic activity (J4L6S strain); type: biochemical, Hepatitis C virus (1b genotype)
T3 construct: DNA encoding the recombinant HCV NS3/4A protease complex (amino acids 1027 to 1711) for these strains; His tag (inferred from pET21b vector and Ni-NTA purification); made in house; host or cells: Escherichia coli BL21 (DE3), pET21b
T3 sequence (O92972 1027-1711 C1454S/C1711G, one chain of several): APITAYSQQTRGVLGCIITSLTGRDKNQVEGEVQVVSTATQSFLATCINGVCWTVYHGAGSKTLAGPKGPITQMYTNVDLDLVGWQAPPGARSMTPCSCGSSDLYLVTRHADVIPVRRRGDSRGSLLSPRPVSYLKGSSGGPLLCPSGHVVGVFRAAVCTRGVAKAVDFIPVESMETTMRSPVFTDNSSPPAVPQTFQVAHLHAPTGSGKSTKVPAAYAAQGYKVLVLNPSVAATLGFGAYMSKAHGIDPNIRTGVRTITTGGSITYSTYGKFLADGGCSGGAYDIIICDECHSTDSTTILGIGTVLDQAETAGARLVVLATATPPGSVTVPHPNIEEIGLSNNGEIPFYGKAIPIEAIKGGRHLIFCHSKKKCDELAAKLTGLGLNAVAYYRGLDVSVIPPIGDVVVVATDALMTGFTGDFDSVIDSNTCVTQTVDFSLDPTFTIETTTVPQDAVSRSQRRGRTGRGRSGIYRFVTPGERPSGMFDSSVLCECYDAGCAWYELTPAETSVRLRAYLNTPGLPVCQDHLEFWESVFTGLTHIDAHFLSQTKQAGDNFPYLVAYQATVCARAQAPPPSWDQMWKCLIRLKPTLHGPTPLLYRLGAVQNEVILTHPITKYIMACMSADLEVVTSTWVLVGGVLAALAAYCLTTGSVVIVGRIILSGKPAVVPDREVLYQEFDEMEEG
Source text: HCV […] protease complexes, derived from the BMS strain, H77 strain or J4L6S strain, were generated, as described below. These purified recombinant proteins were generated for use in a homogeneous assay (see below) to provide an indication of how effective compounds of the present disclosure would be in inhibiting HCV NS3 proteolytic activity.
Serum from an HCV-infected patient was obtained from Dr. T. Wright, San Francisco Hospital. An engineered full-length cDNA (compliment deoxyribonucleic acid) template of the HCV genome (BMS strain) was constructed from DNA fragments obtained by reverse transcription-PCR (RT-PCR) of serum RNA (ribonucleic acid) and using primers selected on the basis of homology between other genotype 1a strains. From the determination of the entire genome sequence, a genotype 1a was assigned to the HCV isolate according to the classification of Simmonds et al. (See Simmonds, P. et al., J. Clin. Microbiol., 31(6), 1493-1503 (1993)). […] The infectious clones, H77 (1a genotype) and J4L6S (1b genotype) were obtained from R. Purcell (NIH) and the sequences are published in GENBANK® (AAB67036, see Yanagi, M. et al., Proc. Natl. Acad. Sci. U.S.A., 94(16):8738-8743 (1997); AF054247, see Yanagi, M. et al., Virology, 244(1):161-172 (1998)).
The H77 and J4L6S strains were used for production of recombinant NS3/4A protease complexes. […]

T1 sequence (P00772 27-266): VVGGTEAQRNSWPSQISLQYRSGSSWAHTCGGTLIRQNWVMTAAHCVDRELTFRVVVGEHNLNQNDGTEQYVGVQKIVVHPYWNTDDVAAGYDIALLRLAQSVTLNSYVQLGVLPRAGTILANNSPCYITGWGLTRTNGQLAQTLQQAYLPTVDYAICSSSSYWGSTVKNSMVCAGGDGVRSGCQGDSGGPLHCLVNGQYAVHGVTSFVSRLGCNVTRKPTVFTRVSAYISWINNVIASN

Question: With `C=C[C@@H]1C[C@]1(NC(=O)[C@@H]1C[C@@](SCCCC)(c2ccc(-c3ccccc3)cc2)CN1C(=O)[C@@H](NC(=O)OC(C)(C)C)C(C)(C)C)C(=O)NS(=O)(=O)C1CC1` [Example 1, tert-butyl (S)-1-((2S,4R)-4-(biphenyl-4-yl)-4-(butylthio)-2-((1R,2S)-1-(cyclopropylsulfonylcarbamoyl)-2-vinylcyclopropylcarbamoyl)pyrrolidin-1-yl)-3,3-dimethyl-1-oxobutan-2-ylcarbamate] as the compound, how does the IC50 [1] read?
Answer: The IC50 was greater than 25 µM.

Question: What about the IC50 [2] of the same compound?
Answer: The IC50 was greater than 12.1 µM.

Question: What about the IC50 [3] of the same compound?
Answer: Its IC50 is 1.1 nM.
